The supplement of paper PMC13380429
Where a name gives a salt, the structure may show the parent alone.

Columns and labels:
Settings in all cases: 72 h
HepG2 [1] = experiment: drug sensitivity score (DSS) for viability; higher = more toxic; extreme values may be limits of the assay
Calu-3 [2] = experiment: as above
Vero E6 [3] = experiment: as above
U2OS [4] = experiment: as above
Caco-2 [5] = experiment: as above
HepG2 [6] = experiment: relative viability EC50 (midpoint between 100% and the lowest measured viability); higher = less toxic
Calu-3 [7] = experiment: as above
Vero E6 [8] = experiment: as above
U2OS [9] = experiment: as above
Caco-2 [10] = experiment: as above
HepG2 [11] = experiment: cell viability relative to DMSO; higher = less toxic
Calu-3 [12] = experiment: as above
Vero E6 [13] = experiment: as above
U2OS [14] = experiment: as above
Caco-2 [15] = experiment: as above

SMILES | drug sensitivity score (HepG2 [1]) | drug sensitivity score (Calu-3 [2]) | drug sensitivity score (Vero E6 [3]) | drug sensitivity score (U2OS [4]) | drug sensitivity score (Caco-2 [5]) | relative viability EC50 (HepG2 [6]) | relative viability EC50 (Calu-3 [7]) | relative viability EC50 (Vero E6 [8]) | relative viability EC50 (U2OS [9]) | relative viability EC50 (Caco-2 [10]) | cell viability (HepG2 [11]; 1 nM) | cell viability (HepG2 [11]; 10 nM) | cell viability (HepG2 [11]; 100 nM) | cell viability (HepG2 [11]; 1000 nM) | cell viability (HepG2 [11]; 10000 nM) | cell viability (Calu-3 [12]; 1 nM) | cell viability (Calu-3 [12]; 10 nM) | cell viability (Calu-3 [12]; 100 nM) | cell viability (Calu-3 [12]; 1000 nM) | cell viability (Calu-3 [12]; 10000 nM) | cell viability (Vero E6 [13]; 1 nM) | cell viability (Vero E6 [13]; 10 nM) | cell viability (Vero E6 [13]; 100 nM) | cell viability (Vero E6 [13]; 1000 nM) | cell viability (Vero E6 [13]; 10000 nM) | cell viability (U2OS [14]; 1 nM) | cell viability (U2OS [14]; 10 nM) | cell viability (U2OS [14]; 100 nM) | cell viability (U2OS [14]; 1000 nM) | cell viability (U2OS [14]; 10000 nM) | cell viability (Caco-2 [15]; 1 nM) | cell viability (Caco-2 [15]; 10 nM) | cell viability (Caco-2 [15]; 100 nM) | cell viability (Caco-2 [15]; 1000 nM) | cell viability (Caco-2 [15]; 10000 nM)
CCN(CC)CCOC(=O)C1(c2ccc([N+](=O)[O-])cc2)CCCC1 [nitrocaramiphen] | 0 | 0 | 0 | 0 | 0 | > 10 µM | > 10 µM | > 10 µM | > 10 µM | > 10 µM | 107% | 97.2% | 103% | 108% | 102% | 90% | 95.7% | 96.5% | 94% | 98.2% | 104% | 92.9% | 97.2% | 102% | 106% | 95.5% | 102% | 95.4% | 94.8% | 98.5% | 103% | 90.1% | 98.3% | 106% | 101%
CCCCN(CC)c1nc(C)nc2c1c(C)c(C)n2-c1c(C)cc(C)cc1C [antalarmin] | 1.1 | 0 | 0 | 0 | 2.5 | > 10 µM | > 10 µM | > 10 µM | > 10 µM |  | 99% | 97.2% | 97.4% | 97.8% | 77.2% | 102% | 94.4% | 95.6% | 99% | 104% | 96% | 92.6% | 97.3% | 101% | 98.2% | 107% | 98.8% | 98.1% | 99% | 101% | 105% | 92.9% | 102% | 91.4% | 70.3%
CC(C)Oc1cccc(-n2c(CCc3c[nH]c4ccc(Br)cc34)nc3ccccc3c2=O)c1 | 1 | 0 | 0 | 0 | 1.2 | > 10 µM | > 10 µM | > 10 µM | > 10 µM |  | 119% | 97.9% | 107% | 85.9% | 92.3% | 95.6% | 93.9% | 92.9% | 112% | 108% | 102% | 101% | 100% | 99.7% | 99.3% | 98.6% | 103% | 98% | 102% | 97.8% | 94.9% | 101% | 101% | 99.1% | 73.3%
CCOc1cc2ncc(C#N)c(Nc3ccc(F)c(Cl)c3)c2cc1NC(=O)/C=C/CN(C)C [pelitinib] | 8.1 | 21.7 | 15.9 | 9.3 | 7.9 | 0.706 µM | 0.0707 µM | 0.334 µM | 1.38 µM |  | 107% | 99.5% | 99% | 59.7% | 40.2% | 88.1% | 83% | 45% | 32% | 9.5% | 106% | 96.4% | 87.3% | 22.6% | 7.9% | 99% | 98.9% | 93.6% | 67.7% | 5.3% | 96.9% | 96.9% | 85.8% | 64.7% | 51.2%
C[C@@H](c1nc(-c2ccc(C#N)cc2)cs1)[C@](O)(Cn1cncn1)c1cc(F)ccc1F [isavuconazole] | 0.6 | 0 | 0 | 0 | 1.8 | > 10 µM | > 10 µM | > 10 µM | > 10 µM |  | 106% | 96% | 93.8% | 100% | 79.2% | 95.7% | 90.1% | 98.7% | 101% | 99.2% | 100% | 98% | 102% | 98.6% | 100% | 98.2% | 102% | 93.9% | 101% | 90.9% | 96.3% | 99.8% | 96% | 93.9% | 74.3%
Nc1nccc2c1ncn2C1C=C(CO)C(O)C1O (configuration not stated) [3-deazaneplanocin-A] | 8.8 | 1 | 9.4 | 6.3 | 2 | 0.832 µM | > 10 µM | 0.47 µM |  | > 10 µM | 105% | 106% | 86.7% | 62.7% | 25.7% | 97.4% | 97.5% | 108% | 85.9% | 89.9% | 98.8% | 100% | 89.1% | 56.6% | 36.2% | 105% | 97.4% | 91.8% | 69.3% | 57.8% | 102% | 104% | 99.3% | 88% | 77%
Cc1cccc(C)c1NC(=O)C[N+](C)(C)C [QX-222] | 0 | 0 | 0 |  | 0 | > 10 µM | > 10 µM | > 10 µM |  | > 10 µM | 106% | 103% | 99% | 95.5% | 95.8% | 102% | 93.8% | 107% | 94.9% | 106% | 102% | 101% | 98.7% | 105% | 99.7% |  |  |  |  |  | 107% | 97% | 99.1% | 100% | 112%
CCN(CC)C(=O)[C@@]1(c2ccccc2)C[C@H]1CN [milnacipran] | 0 | 0 | 0 |  | 0 | > 10 µM | > 10 µM | > 10 µM |  | > 10 µM | 101% | 86.7% | 98.9% | 107% | 90.9% | 106% | 93.5% | 97.9% | 95% | 97.9% | 94.6% | 102% | 97.8% | 102% | 98.2% |  |  |  |  |  | 99.9% | 87.3% | 87.5% | 99.8% | 98.7%
CC(=O)Nc1nc2c(Oc3cc(-c4ccc(C(F)(F)F)cc4)ncn3)cccc2s1 [AMG-517] | 0 | 0 | 0 |  | 0 | > 10 µM | > 10 µM | > 10 µM |  | > 10 µM | 112% | 98.3% | 95.4% | 102% | 91.8% | 104% | 86.1% | 100% | 92.4% | 92.5% | 101% | 102% | 101% | 102% | 99.4% |  |  |  |  |  | 102% | 96.5% | 103% | 97.2% | 94.4%
C=CCc1cccc(/C=N/NC(=O)CN2CCN(Cc3ccccc3)CC2)c1O [PAC-1] | 7.1 | 4.6 | 3.3 | 3.1 | 8 | 2 µM | 3.25 µM | 2.52 µM |  | 1.77 µM | 104% | 105% | 94% | 87% | 11.5% | 89.6% | 103% | 102% | 101% | 15.8% | 103% | 103% | 104% | 95.9% | 48.7% | 97.5% | 101% | 95.9% | 96.6% | 50.6% | 98.2% | 102% | 91.5% | 82.3% | 8%
NC[C@@](O)(c1ccc(Cl)cc1)c1ccc(-c2cn[nH]c2)cc1 | 1.4 | 0 | 7.4 | 3.9 | 1.3 | > 10 µM | > 10 µM | 1.16 µM | 2.36 µM |  | 89.6% | 93.2% | 111% | 93.8% | 79.5% | 98.5% | 99.9% | 119% | 144% | 105% | 101% | 104% | 97.5% | 70.5% | 30.7% | 104% | 103% | 95.5% | 94.6% | 44.4% | 93.7% | 104% | 104% | 99.9% | 70%
CCCCc1nn(-c2ccccc2C(F)(F)F)c(=O)n1Cc1ccc(-c2ccccc2S(=O)(=O)NC(=O)c2sccc2C)cc1 | 0 | 0 | 0 |  | 0 | > 10 µM | > 10 µM | > 10 µM |  | > 10 µM | 98.8% | 115% | 111% | 108% | 102% | 107% | 99.2% | 108% | 106% | 109% | 104% | 106% | 102% | 96.8% | 104% |  |  |  |  |  | 98.6% | 110% | 102% | 100% | 94.1%
CCOC(=O)CNC(=O)[C@@H]1CCCN1C(=O)Cc1ccccc1 [DVD-111] | 0 | 0 | 0 |  | 0 | > 10 µM | > 10 µM | > 10 µM |  | > 10 µM | 98.8% | 97.2% | 90.9% | 93.5% | 96.9% | 106% | 98.4% | 106% | 93.7% | 116% | 103% | 105% | 98.8% | 104% | 101% |  |  |  |  |  | 110% | 102% | 114% | 97% | 107%
CN(C)C(=O)COC(=O)Cc1ccc(OC(=O)c2ccc(NC(=N)N)cc2)cc1 [Camostat mesylate] | 0 | 0 | 0 | 0 |  | > 10 µM | > 10 µM | > 10 µM | > 10 µM |  | 102% | 96.2% | 97% | 100% | 103% | 99.8% | 97.1% | 104% | 91% | 97% | 95.9% | 105% | 88.8% | 102% | 100% | 104% | 107% | 97.4% | 100% | 99.4% |  |  |  |  | 
CCc1cccc(CC)c1NC(=O)c1nn(C)c2c1CCc1cnc(Nc3ccc(C(=O)NC4CCN(C)CC4)cc3OC(F)(F)F)nc1-2 [NMS-P715] | 2.1 | 0 | 0.7 | 0 |  | 3.99 µM | > 10 µM | > 10 µM | > 10 µM |  | 114% | 103% | 107% | 112% | 48.2% | 91.9% | 97.7% | 98.8% | 105% | 104% | 104% | 88.8% | 104% | 94.7% | 84.7% | 95.9% | 99.7% | 98.1% | 102% | 98.7% |  |  |  |  | 
CCOC(=O)OC(C)OC(=O)[C@@H]1N2C(=O)[C@@H](NC(=O)[C@H](N)c3ccccc3)[C@H]2SC1(C)C (some centres not stated) [bacampicillin] | 0 | 0 | 0 |  | 0 | > 10 µM | > 10 µM | > 10 µM |  | > 10 µM | 97.6% | 114% | 103% | 100% | 94.6% | 94.1% | 82.4% | 102% | 103% | 110% | 91.8% | 96.7% | 97.9% | 98.1% | 98.6% |  |  |  |  |  | 96.3% | 94% | 95.9% | 98% | 104%
